In ChEMBL document CHEMBL3882724 (2013):

Experiments:
[1] = target: T1, Steroid 17-alpha-hydroxylase/17,20 lyase (Homo sapiens, UniProt P05093); experiment: Inhibition of CYP17 in human testicular microsomes using 17alpha-hydroxypregnenolone as substrate assessed as decrease in DHEA levels after 90 mins by ELISA; design: species or system Testis
T1 sequence (P05093 whole entry): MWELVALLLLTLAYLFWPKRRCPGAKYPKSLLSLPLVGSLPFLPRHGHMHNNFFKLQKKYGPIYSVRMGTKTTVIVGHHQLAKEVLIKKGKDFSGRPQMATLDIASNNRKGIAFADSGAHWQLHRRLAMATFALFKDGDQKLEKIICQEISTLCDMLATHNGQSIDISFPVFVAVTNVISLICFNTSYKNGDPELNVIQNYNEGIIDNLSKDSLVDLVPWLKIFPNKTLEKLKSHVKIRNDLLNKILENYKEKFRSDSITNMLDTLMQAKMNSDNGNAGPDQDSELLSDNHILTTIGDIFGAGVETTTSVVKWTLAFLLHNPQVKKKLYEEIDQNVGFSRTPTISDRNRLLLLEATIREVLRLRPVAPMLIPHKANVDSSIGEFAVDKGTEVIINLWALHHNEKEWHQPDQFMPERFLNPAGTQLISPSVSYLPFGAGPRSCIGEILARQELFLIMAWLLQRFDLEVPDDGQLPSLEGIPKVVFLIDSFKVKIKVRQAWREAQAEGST

[2] = target: T2, CYP21 (steroid 21-hydroxylase) (Homo sapiens, UniProt P08686); experiment: Inhibition of human CYP21 transfected in HEK293 cells assessed as decrease in conversion of progesterone to 11-deoxycorticosterone preincubated for 5 hrs followed by progesterone addition measured after 20 hrs by ELISA; format: cell-based; design: concentration or dose not given beside the values; conditions: HEK293 cells transfected with human CYP21, probe progesterone
T2 sequence (P08686 whole entry): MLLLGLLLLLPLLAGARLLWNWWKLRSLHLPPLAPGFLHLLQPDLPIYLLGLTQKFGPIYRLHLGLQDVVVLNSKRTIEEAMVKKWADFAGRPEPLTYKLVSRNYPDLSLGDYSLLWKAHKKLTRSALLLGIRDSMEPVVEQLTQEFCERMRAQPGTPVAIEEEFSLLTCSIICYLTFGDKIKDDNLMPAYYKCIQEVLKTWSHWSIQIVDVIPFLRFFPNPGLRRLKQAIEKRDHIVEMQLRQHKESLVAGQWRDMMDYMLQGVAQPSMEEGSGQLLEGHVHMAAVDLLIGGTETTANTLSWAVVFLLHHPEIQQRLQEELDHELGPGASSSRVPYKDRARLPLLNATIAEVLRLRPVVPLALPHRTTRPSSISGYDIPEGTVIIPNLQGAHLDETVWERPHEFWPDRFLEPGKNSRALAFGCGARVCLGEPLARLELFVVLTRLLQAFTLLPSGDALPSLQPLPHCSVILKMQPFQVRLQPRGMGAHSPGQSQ

[3] = Half life in human liver microsomes at 1 uM by LC-MS/MS analysis

Row | Structure (SMILES) | IC50 [1] | inhibition at 20 h [2] | half-life at 1 µM [3]
1 | CC1=C2CC[C@@H]3[C@H](CC[C@]4(C)C(c5cccnc5)=CC[C@@H]34)[C@@]2(C)CCC1O (some centres not stated) | ≤ 11 nM | 10 to 50% | –
2 | C[C@]12CC[C@H]3[C@@H](CC(F)C4(O)CC(=O)CC[C@]34C)[C@@H]1CC=C2c1cncc(F)c1 (some centres not stated) | ≤ 11 nM | ≥ 50% | –
3 | C[C@]12CC[C@@H](NC(=O)C3CCC3)CC1=CC[C@@H]1[C@@H]2CC[C@]2(C)C(c3cccnc3)=CC[C@@H]12 | ≤ 11 nM | ≥ 50% | –
4 | C[C@]12CC[C@H]3[C@@H](CC(O)C45CC4CC[C@]35C)C1=CC=C2c1cccnc1 (some centres not stated) | ≤ 11 nM | ≥ 50% | 1 to 50 min
5 | C[C@]12CCC(F)(F)CC1CC[C@@H]1[C@@H]2CC[C@]2(C)C(c3cccnc3)=CC[C@@H]12 (some centres not stated) | ≤ 11 nM | – | –
6 | C[C@]12CCC(=O)C=C1C(F)C[C@@H]1[C@@H]2CC[C@]2(C)C(c3cncc(F)c3)=CC[C@@H]12 (some centres not stated) | ≤ 11 nM | ≥ 50% | 1 to 50 min
7 | CC1=C2CC[C@H]3C4=CC=C(c5cccnc5)[C@@]4(C)CC[C@@H]3[C@@]2(C)CCC1O (some centres not stated) | ≤ 11 nM | – | –
8 | CCNC(=O)N[C@@H]1CC[C@@]2(C)C(=CC[C@@H]3[C@@H]2CC[C@]2(C)C(c4cccnc4)=CC[C@@H]32)C1 | – | ≥ 50% | 1 to 50 min
9 | CC[C@]1(O)CC[C@@]2(C)C(CC[C@@H]3[C@@H]2CC[C@]2(C)C(c4cccnc4)=CC[C@@H]32)C1 (some centres not stated) | – | 10 to 50% | 1 to 50 min
10 | C[C@]12CC[C@H]3[C@@H](CC(F)C4(O)CC(=O)CC[C@]34C)[C@@H]1CC=C2c1cccnc1 (some centres not stated) | ≤ 11 nM | ≥ 50% | –
11 | C[C@]12CC[C@H]3[C@@H](CCC4=CC(=O)NCC[C@@]43C)C1=CC=C2c1cncc(C(F)F)c1 | ≤ 11 nM | ≥ 50% | –
12 | C[C@]12CC[C@H](O)CC1=CC[C@@H]1[C@@H]2CC[C@]2(C)C(c3cccnc3F)=CC[C@@H]12 | ≤ 11 nM | ≥ 50% | 1 to 50 min
13 | COC(=O)N[C@H]1CC[C@@]2(C)C(CC[C@H]3C4CC=C(c5cccnc5)[C@@]4(C)CC[C@@H]32)C1 (single isomer, unassigned) | – | ≥ 50% | 1 to 50 min
14 | C[C@]12CC[C@H]3[C@@H](CC(F)[C@]4(O)C[C@@H](O)CC[C@]34C)[C@@H]1CC=C2c1cccnc1 (some centres not stated) | ≤ 11 nM | ≥ 50% | 1 to 50 min
15 | CC1C[C@H]2[C@@H]3CC=C(c4cccnc4)[C@@]3(C)CC[C@@H]2[C@@]2(C)CC[C@H](O)CC12O (some centres not stated) | ≤ 11 nM | ≥ 50% | –
16 | C[C@]12CC[C@H](O)CC1=CC[C@@H]1[C@@H]2CC[C@]2(C)C(c3ccc(F)nc3)=CC[C@@H]12 | – | 10 to 50% | 1 to 50 min
17 | CC1(C)C2=CC[C@H]3C4=CC=C(c5cccnc5)[C@@]4(C)CC[C@@H]3[C@@]2(C)CCC1O (some centres not stated) | – | 10 to 50% | 1 to 50 min
18 | CC(=O)N[C@@H]1CC[C@@]2(C)C(=CC[C@@H]3[C@@H]2CC[C@]2(C)C(c4cncc(C(F)F)c4)=CC[C@@H]32)C1 | ≤ 11 nM | ≥ 50% | 1 to 50 min
19 | C[C@]12CC[C@H]3[C@@H](CC=C4C[C@H](O)CC[C@@]43C)C1=CC=C2c1cccnc1 | ≤ 11 nM | ≥ 50% | 1 to 50 min
20 | C[C@]12CC[C@H](O)CC1=CC[C@@H]1[C@@H]2CC[C@]2(C)C(c3cncc(Cl)c3)=CC[C@@H]12 | ≤ 11 nM | ≥ 50% | 1 to 50 min
21 | C[C@]12CC[C@H]3[C@@H](CC(F)[C@@]4(O)C[C@@H](O)CC[C@]34C)[C@@H]1CC=C2c1cccnc1 (some centres not stated) | ≤ 11 nM | ≥ 50% | 1 to 50 min
22 | CC(=O)NC1CC[C@@]2(C)C(CC[C@@H]3[C@@H]2CC[C@]2(C)C(c4cccnc4)=CC[C@@H]32)C1 (single isomer, unassigned) | ≤ 11 nM | ≥ 50% | 1 to 50 min

Row | Structure (SMILES) | IC50 [1] | inhibition at 20 h [2] | half-life at 1 µM [3]
23 | COc1cncc(C2=CC[C@H]3[C@@H]4CC=C5C[C@H](NC(=O)C6CC6)CC[C@]5(C)[C@H]4CC[C@]23C)c1 | ≤ 11 nM | ≥ 50% | 1 to 50 min
24 | C[C@]1(O)CC[C@@]2(C)C(CC[C@H]3C4=CC=C(c5cccnc5)[C@@]4(C)CC[C@@H]32)C1 (some centres not stated) | ≤ 11 nM | 10 to 50% | 1 to 50 min
25 | C[C@]12CCNC(=O)C=C1C(F)C[C@@H]1[C@@H]2CC[C@]2(C)C(c3cccnc3)=CC[C@@H]12 (some centres not stated) | ≤ 11 nM | ≥ 50% | 1 to 50 min
26 | C[C@]12CCC(=O)CC1C(=O)C[C@@H]1[C@@H]2CC[C@]2(C)C(c3cncc(F)c3)=CC[C@@H]12 (some centres not stated) | ≤ 11 nM | ≥ 50% | –
27 | C[C@]12CC[C@H](O)CC1=CC[C@@H]1[C@@H]2CC[C@]2(C)C(c3cncc(N)c3)=CC[C@@H]12 | ≤ 11 nM | ≥ 50% | ≥ 50 min
28 | CC(=O)N[C@@H]1CC[C@@]2(C)C(=CC[C@@H]3[C@@H]2CC[C@]2(C)C(c4cncc(F)c4)=CC[C@@H]32)C1 | ≤ 11 nM | ≥ 50% | 1 to 50 min
29 | COc1cncc(C2=CC[C@H]3[C@@H]4CCC5C[C@@H](NC(C)=O)CC[C@]5(C)[C@H]4CC[C@]23C)c1 (some centres not stated) | – | ≥ 50% | 1 to 50 min
30 | Cc1cncc(C2=CC=C3[C@@H]4CCC5CC(=O)NCC[C@]5(C)[C@H]4CC[C@]23C)c1 (some centres not stated) | ≤ 11 nM | ≥ 50% | –
31 | C[C@]12CC[C@H]3[C@@H](CCC4=CC(=O)CC[C@@]43C)C1=CC=C2c1cncc(N)c1 | ≤ 11 nM | – | –
32 | Cc1cncc(C2=CC[C@H]3[C@@H]4CC=C5C[C@H](NC(=O)C6CC6)CC[C@]5(C)[C@H]4CC[C@]23C)c1 | ≤ 11 nM | ≥ 50% | –
33 | C[C@@]1(O)CC[C@@]2(C)C(=CC[C@@H]3[C@@H]2CC[C@]2(C)C(c4cncc(F)c4)=CC[C@@H]32)C1 | – | ≥ 50% | ≥ 50 min
34 | C[C@]12CC[C@H](O)CC1=CC[C@@H]1[C@@H]2CC[C@]2(C)C(c3cncc(F)c3)=CC[C@@H]12 | ≤ 11 nM | ≥ 50% | ≥ 50 min
35 | CCCC(=O)N[C@@H]1CC[C@@]2(C)C(=CC[C@@H]3[C@@H]2CC[C@]2(C)C(c4cccnc4)=CC[C@@H]32)C1 | ≤ 11 nM | ≥ 50% | 1 to 50 min
36 | C[C@]1(O)CC[C@@]2(C)C(CC[C@@H]3[C@@H]2CC[C@]2(C)C(c4cccnc4)=CC[C@@H]32)C1 (some centres not stated) | ≤ 11 nM | ≥ 50% | 1 to 50 min
37 | CC(=O)N[C@@H]1CC[C@@]2(C)C(=CC[C@@H]3[C@@H]2CC[C@]2(C)C(c4cncc(C(F)(F)F)c4)=CC[C@@H]32)C1 | – | 10 to 50% | 1 to 50 min
38 | CC(=O)N[C@@H]1CC[C@@]2(C)C(CC[C@H]3C4=CC=C(c5cccnc5)[C@@]4(C)CC[C@@H]32)C1 (some centres not stated) | – | ≥ 50% | 1 to 50 min
39 | CC(=O)O[C@H]1CC[C@@]2(C)C(=CC[C@H]3C4=CC=C(n5ccnc5)[C@@]4(C)CC[C@@H]32)C1 | ≤ 11 nM | – | –
40 | C[C@]12CC[C@H]3[C@@H](CCC4CC(F)(F)CC[C@@]43C)C1=CC=C2c1cccnc1 (some centres not stated) | ≤ 11 nM | – | –
41 | C[C@]12CCC(=O)C=C1C(=O)C[C@@H]1[C@@H]2CC[C@]2(C)C(c3cncc(F)c3)=CC[C@@H]12 | ≤ 11 nM | ≥ 50% | –
42 | C[C@]12CCC(=O)C(O)=C1C=C[C@@H]1[C@@H]2CC[C@]2(C)C(c3cccnc3)=CC[C@@H]12 | – | ≥ 50% | 1 to 50 min
43 | C[C@]12CC[C@@H](NC(=O)C3CC3)CC1=CC[C@H]1C3CC=C(c4cccnc4)[C@@]3(C)CC[C@@H]12 (single isomer, unassigned) | ≤ 11 nM | ≥ 50% | 1 to 50 min
44 | C[C@]12CC[C@@H](NC(=O)C3CC3)CC1CC[C@H]1C3CC=C(c4cccnc4)[C@@]3(C)CC[C@@H]12 (single isomer, unassigned) | ≤ 11 nM | ≥ 50% | 1 to 50 min
